Tests used:
[1] = tested on: TNF-α; assay: TNF-α in cerebral cortex of TBI rats; type: in vivo, SD rats; conditions: 30 mg/kg ip 2 h after TBI; 24 h after administration; FIG. 3
Procedure: The experimental grouping and drug administration plan were as follows. • Sham operation group (Group P): saline was given with the same volume as in the CTMB group; • Model group (T group): a blank emulsion was given with the same volume as in the CTMB group; • Medium dose group (Group M): a dose of 30 mg/kg of CTMB emulsion injection was given.
The experimental grouping and drug administration plan were the same as the test 3. After 2 h of the TBI modeling, different groups of rats were administered intraperitoneally. After 24 h of the administration, the rats were deeply anesthetized, the head was severed and the brain was removed, about 60-120 mg of hemisphere cortex was taken out from the hemisphere on the blood side, 10 times the volume of ice-cold centrifugal buffer used for biochemical assays was added, homogenization was carried out in an ice bath for 10 min, and centrifugation was carried out at 4° C. and 14000 rpm/min for 30 min. The supernatant was extracted, and inflammatory factors IL-1, IL-6, and TNF-α were tested according to the instructions of IL-1, IL-6, and TNF-α assay kits, respectively.

[2] = tested on: rat model of lithium-pilocarpine-induced epilepsy; assay: Rat model of lithium-pilocarpine-induced epilepsy (SE), highest seizure grade score; type: in vivo, Sprague Dawley (SD) rats; conditions: 50 mg/kg intraperitoneal, 1 h after SE onset; acute phase; Racine 0-6
Procedure: (1) Experimental Animals: SPF Adult Male Sprague Dawley (SD) Rats, with a Weight of 200-250 g.
Methylscopolamine bromide, lithium chloride, and pilocarpine were weighed, and experimental drugs were dissolved to working concentrations (100 mg/mL of lithium chloride solution, 1 mg/mLof methylscopolamine bromide solution, and 20 mg/mL of pilocarpine solution) with 0.9% saline. Rats were injected intraperitoneally with lithium chloride (a dose of 127 mg/kg), and 18-20 h later, scopolamine methylbromide (a dose of 1 mg/kg) was injected intraperitoneally. […] Thereafter, an additional dose of 10 mg/kg pilocarpine was injected intraperitoneally every 30 min until the onset of a grade IV or higher status epilepticus (SE)-like seizure without significant intermittent intervals, with a maximum dose of 60 mg/kg.
Model inclusion criterion: experimental animals presenting continuous seizures of grade IV or higher for 1 h was judged as successful modeling.
The rats with successful modeling were randomly divided into three groups, namely a model group, a CTMB group, and a sodium valproate (VPA) group. […]
Referring to the grading scale of Racine scores, the seizure symptoms of each group of rats after the drug intervention were observed, and the seizure grades of each group of rats in the acute phase were recorded. […]

[3] = tested on: hemorrhagic stroke induced by caudate nucleus collagenase VII injection in rats; assay: Acute phase of hemorrhagic stroke induced by caudate nucleus collagenase VII injection, short-term neurological deficit score; type: in vivo; conditions: for mNSS score / Garcia score: 24 h after hemorrhagic stroke modeling; for mNSS score: scale 0-18, higher worse; for Garcia score: scale 3-18, lower worse
Procedure: after 2 h of hemorrhagic stroke, Zea Longa Score was used to determine whether the modeling was successful, and rats with successful modeling were taken and randomly grouped to be administered.
The rats were randomly divided into a sham operation group (Sham group, given a blank emulsion with a volume equal to that of the high-dose CTMB group), a model group (Vehicle group, given a blank emulsion with a volume equal to that of the high-dose CTMB group), a low-dose CTMB group (CTMB-L group, 10 mg/kg), a high-dose CTMB group (CTMB-H group, 20 mg/kg), and an edaravone dexborneol injection concentrated solution group (EDB group, commercially available, 3 mg/kg). Each group included 10-13 rats, which were administered by intraperitoneal injection. It should be noted that in the experiment, the mode of administration for rats was intraperitoneal injection, and a ratio of the effective dose of CTMB, the active ingredient in the emulsion injection, to the unit mass of the human body was within a range of 0.2 mg-4.0 mg/kg, which referred to the ratio of the effective dose of CTMB, the active ingredient in the emulsion injection, to the unit mass of the human body during intravenous infusion, which was extrapolated from effective dose of the rats. Considering the different bioavailability, peak concentration, and peak time of the drug due to different species and different modes of administration, the ration of the effective dose of the active ingredient CTMB in the emulsion injection to unit mass of human body was finally determined to be 0.2 mg-4.0 mg/kg through conversion.
The rats were fasted and dehydrated for 8 h before the procedure, and anesthesia was induced using 4% isoflurane, and 2% isoflurane was given to maintain anesthesia, and the rats were maintained at a temperature of about 37° C. The rats were fixed at the prone position on the stereotaxic apparatus, the head was prepared for skinning, and a longitudinal incision was made in the median sagittal shape of the head to incise the skin and subcutaneous tissues, exposing the anterior chimney and coronal suture. The stereotaxic apparatus was used to locate the right caudate nucleus of the rat with the fontanel as the origin and the right paracentral opening of the midline of 3.0 mm, marked and then holes were punched with the cranial bone drill, the dura was exposed, and the hemorrhage was stopped adequately. The micro-syringe was pre-mounted on the stereotaxic apparatus, and the needle was vertically injected 5.5 mm along the cranial borehole (i.e., the caudate nucleus site). Collagenase VII (1 μL) at a concentration of 0.5 U/μL was injected slowly and uniformly into the brain for 5 min, the needle was stopped for 8 min, and the syringe was slowly pushed out. The cranial defect was closed using sterile bone wax and the scalp incision was sutured. After disinfecting the treatment with iodophor, the rats were returned to the cage. The sham operation group (Sham group) remained unchanged except for the insertion of a needle for saline injection. After awaking from anesthesia, the rats were fed normally. […]
The neural function of the rats was comprehensively evaluated after 24 h of modeling using the modified mNSS score and Garcia score, and mNSS scoring criteria was shown in Table 3 and Garcia scoring criteria was shown in Table 4. […]

COc1cc(OC)c(OC)cc1C=C1CCC1 [CTMB, 1-(cyclobutylidenemethyl)-2,4,5-trimethoxybenzene]
content of TNF-α in cerebral cortex tissue [1]: significantly reduced | Seizure grade score (highest, SE model rats) [2]: 4.38 ± 0.52 | toxic side effects associated with administration ([3]; 10 and 20 mg/kg ip, hemorrhagic stroke rats): No toxic side effects | mNSS score ([3]; CTMB-H 20 mg/kg ip): 5.97 ± 1.68^####, * | Garcia score ([3]; CTMB-H 20 mg/kg ip): 10.45 ± 2.49^####, * | mNSS score ([3]; CTMB-L 10 mg/kg ip): 4.54 ± 1.81^###, **** | Garcia score ([3]; CTMB-L 10 mg/kg ip): 12.45 ± 1.89^####, ****

Reference: patent publication US20250270159A1, “1-(CYCLOBUTANEMETHYLIDENE)-2, 4, 5-TRIMETHOXYBENZENE COMPOUND AND PREPARATION METHOD AND USE THEREOF” (CHENGDU XINRUI TAIKANG TECHNOLOGY CO., LTD., priority 2023, published 2025)
